Legend:
[1] = target: T1, stromelysin-1 catalytic domain (SCD) (Homo sapiens, UniProt P08254); conditions: in Tris–HCl, not corrected for proton transfer; cited from earlier work
[2] = target: T1, stromelysin-1 catalytic domain (SCD); assay: Isothermal titration calorimetry of ligand binding

T1 sequence (P08254 100-272 limits assumed, species assumed): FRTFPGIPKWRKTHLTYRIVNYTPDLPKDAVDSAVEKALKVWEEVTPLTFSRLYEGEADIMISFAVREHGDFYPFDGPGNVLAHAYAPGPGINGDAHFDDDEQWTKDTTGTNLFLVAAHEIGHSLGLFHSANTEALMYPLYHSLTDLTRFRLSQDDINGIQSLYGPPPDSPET

For Oc1ccccc1 [phenol], the ΔHobs [1] is listed as -19.7 kJ/mol.

For CC(=O)NO [Compound 8, acetohydroxamic acid], the “ΔG^0” value ([2]; ITC, pH 7.5, 3% DMSO) was -10 ± 1.3 kJ/mol, the ΔHbind0 ([2]; ITC, pH 7.5, 3% DMSO, corrected for proton transfer) was -9.62 ± 0.84 kJ/mol and the ΔCP ([2]; from titrations at 15, 25 and 37 °C, by regression) was −67 ± 24 cal mol^−1 K^−1.
